Assays:
Test in all cases: viability relative to DMSO control (fraction); higher = less drug effect (more viable cells)
Details in all cases: 48 h
[1] = system: primary AML patient cells (S012)
How it was run: (§1)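 Viability is given as CellTiter-Glo luminescence relative to the median of 16 inner DMSO wells. Fresh or cryopreserved primary mononuclear tumour cells from blood, bone marrow (both Ficoll-isolated) or processed lymph node were plated at 4 × 10^4 cells per well in 384-well plates against five pre-plated compound concentrations, one well each. Incubation lasted 48 h at 37 °C and 5% CO2 in RPMI-1640 with penicillin/streptomycin, L-glutamine and human serum.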

[2] = system: primary T-PLL patient cells (S008)
How it was run: as §1

[3] = system: primary AML patient cells (S079)
How it was run: as §1

[4] = system: primary AML patient cells (S056)
How it was run: as §1

[5] = system: primary FL patient cells (S022)
How it was run: as §1

[6] = system: primary AML patient cells (S009)
How it was run: as §1

[7] = system: primary AML patient cells (S089)
How it was run: as §1

[8] = system: primary AML patient cells (S091)
How it was run: as §1

[9] = system: primary MCL patient cells (S053)
How it was run: as §1

[10] = system: primary CLL patient cells (S031)
How it was run: as §1

[11] = system: primary ALL patient cells (S048)
How it was run: as §1

[12] = system: primary MCL patient cells (S068)
How it was run: as §1

[13] = system: primary MCL patient cells (S041)
How it was run: as §1

[14] = system: primary FL patient cells (S087)
How it was run: as §1

[15] = system: primary AML patient cells (S072)
How it was run: as §1

[16] = system: primary DLBCL patient cells (S082)
How it was run: as §1

[17] = system: primary AML patient cells (S037)
How it was run: as §1

[18] = system: primary MCL patient cells (S063)
How it was run: as §1

Question: `CCc1cnn2c(NCc3ccc[n+]([O-])c3)cc(N3CCCC[C@H]3CCO)nc12` [Dinaciclib] was tested. Which viability ([1]; 0.0016 µM) did it give?
Answer: Its viability is 1.1.

Question: And the viability ([1]; 0.008 µM)?
Answer: The viability was 0.473.

Question: And the viability ([1]; 0.04 µM)?
Answer: Its viability is 0.0686.

Question: What about the viability ([1]; 0.2 µM) of the same compound?
Answer: The viability was 0.0607.

Question: And the viability ([1]; 1 µM)?
Answer: Its viability is 0.0676.

Question: And the viability ([2]; 0.0016 µM)?
Answer: The viability was 0.971.

Question: And the viability ([2]; 0.008 µM)?
Answer: The viability was 0.736.

Question: What about the viability ([2]; 0.04 µM) of the same compound?
Answer: The viability was 0.127.

Question: And the viability ([2]; 0.2 µM)?
Answer: Its viability is 0.128.

Question: And the viability ([2]; 1 µM)?
Answer: Its viability is 0.143.

Question: And the viability ([3]; 0.0016 µM)?
Answer: The viability was 1.

Question: And the viability ([3]; 0.008 µM)?
Answer: The viability was 0.153.

Question: And the viability ([3]; 0.04 µM)?
Answer: Its viability is 0.028.

Question: What about the viability ([3]; 0.2 µM) of the same compound?
Answer: The viability was 0.0285.

Question: And the viability ([3]; 1 µM)?
Answer: Its viability is 0.0293.

Question: And the viability ([4]; 0.0016 µM)?
Answer: The viability was 0.898.

Question: And the viability ([4]; 0.008 µM)?
Answer: Its viability is 0.0944.

Question: What about the viability ([4]; 0.04 µM) of the same compound?
Answer: Its viability is 0.101.

Question: What about the viability ([4]; 0.2 µM) of the same compound?
Answer: Its viability is 0.0868.

Question: What about the viability ([4]; 1 µM) of the same compound?
Answer: The viability was 0.0937.

Question: And the viability ([5]; 0.0016 µM)?
Answer: Its viability is 1.01.

Question: And the viability ([5]; 0.008 µM)?
Answer: The viability was 0.227.

Question: What about the viability ([5]; 0.04 µM) of the same compound?
Answer: The viability was 0.195.

Question: And the viability ([5]; 0.2 µM)?
Answer: Its viability is 0.216.

Question: And the viability ([5]; 1 µM)?
Answer: The viability was 0.269.

Question: And the viability ([6]; 0.0016 µM)?
Answer: Its viability is 1.06.

Question: What about the viability ([6]; 0.008 µM) of the same compound?
Answer: Its viability is 0.189.

Question: What about the viability ([6]; 0.04 µM) of the same compound?
Answer: The viability was 0.0815.

Question: What about the viability ([6]; 0.2 µM) of the same compound?
Answer: The viability was 0.0774.

Question: What about the viability ([6]; 1 µM) of the same compound?
Answer: Its viability is 0.0863.

Question: What about the viability ([7]; 0.0016 µM) of the same compound?
Answer: The viability was 0.929.

Question: And the viability ([7]; 0.008 µM)?
Answer: The viability was 0.0524.

Question: What about the viability ([7]; 0.04 µM) of the same compound?
Answer: Its viability is 0.0434.

Question: What about the viability ([7]; 0.2 µM) of the same compound?
Answer: Its viability is 0.0447.

Question: What about the viability ([7]; 1 µM) of the same compound?
Answer: Its viability is 0.0498.

Question: What about the viability ([8]; 0.0016 µM) of the same compound?
Answer: The viability was 1.07.

Question: What about the viability ([8]; 0.008 µM) of the same compound?
Answer: Its viability is 0.171.

Question: What about the viability ([8]; 0.04 µM) of the same compound?
Answer: Its viability is 0.0777.

Question: What about the viability ([8]; 0.2 µM) of the same compound?
Answer: The viability was 0.076.

Question: What about the viability ([8]; 1 µM) of the same compound?
Answer: The viability was 0.0799.

Question: What about the viability ([9]; 0.0016 µM) of the same compound?
Answer: The viability was 0.881.

Question: What about the viability ([9]; 0.008 µM) of the same compound?
Answer: Its viability is 0.534.

Question: And the viability ([9]; 0.04 µM)?
Answer: Its viability is 0.755.

Question: What about the viability ([9]; 0.2 µM) of the same compound?
Answer: Its viability is 0.9.

Question: What about the viability ([9]; 1 µM) of the same compound?
Answer: The viability was 1.08.

Question: What about the viability ([10]; 0.0016 µM) of the same compound?
Answer: Its viability is 0.744.

Question: And the viability ([10]; 0.008 µM)?
Answer: The viability was 0.0197.

Question: What about the viability ([10]; 0.04 µM) of the same compound?
Answer: The viability was 0.018.

Question: What about the viability ([10]; 0.2 µM) of the same compound?
Answer: The viability was 0.0169.

Question: What about the viability ([10]; 1 µM) of the same compound?
Answer: The viability was 0.0188.

Question: What about the viability ([11]; 0.0016 µM) of the same compound?
Answer: The viability was 0.839.

Question: What about the viability ([11]; 0.008 µM) of the same compound?
Answer: Its viability is 0.127.

Question: And the viability ([11]; 0.04 µM)?
Answer: Its viability is 0.0333.

Question: And the viability ([11]; 0.2 µM)?
Answer: Its viability is 0.0246.

Question: What about the viability ([11]; 1 µM) of the same compound?
Answer: The viability was 0.0268.

Question: And the viability ([12]; 0.0016 µM)?
Answer: The viability was 0.678.

Question: And the viability ([12]; 0.008 µM)?
Answer: The viability was 0.0624.

Question: What about the viability ([12]; 0.04 µM) of the same compound?
Answer: Its viability is 0.0361.

Question: And the viability ([12]; 0.2 µM)?
Answer: The viability was 0.0363.

Question: What about the viability ([12]; 1 µM) of the same compound?
Answer: Its viability is 0.0424.

Question: What about the viability ([13]; 0.0016 µM) of the same compound?
Answer: The viability was 0.938.

Question: And the viability ([13]; 0.008 µM)?
Answer: Its viability is 0.0691.

Question: What about the viability ([13]; 0.04 µM) of the same compound?
Answer: Its viability is 0.0382.

Question: What about the viability ([13]; 0.2 µM) of the same compound?
Answer: Its viability is 0.0378.

Question: And the viability ([13]; 1 µM)?
Answer: Its viability is 0.0402.

Question: What about the viability ([14]; 0.0016 µM) of the same compound?
Answer: The viability was 0.962.

Question: What about the viability ([14]; 0.008 µM) of the same compound?
Answer: Its viability is 0.641.

Question: And the viability ([14]; 0.04 µM)?
Answer: The viability was 0.759.

Question: And the viability ([14]; 0.2 µM)?
Answer: The viability was 0.756.

Question: And the viability ([14]; 1 µM)?
Answer: Its viability is 0.829.

Question: And the viability ([15]; 0.0016 µM)?
Answer: The viability was 0.979.

Question: What about the viability ([15]; 0.008 µM) of the same compound?
Answer: Its viability is 0.169.

Question: What about the viability ([15]; 0.04 µM) of the same compound?
Answer: Its viability is 0.0691.

Question: And the viability ([15]; 0.2 µM)?
Answer: Its viability is 0.0617.

Question: And the viability ([15]; 1 µM)?
Answer: Its viability is 0.065.

Question: And the viability ([16]; 0.0016 µM)?
Answer: The viability was 0.98.

Question: And the viability ([16]; 0.008 µM)?
Answer: The viability was 0.102.

Question: What about the viability ([16]; 0.04 µM) of the same compound?
Answer: The viability was 0.0294.

Question: And the viability ([16]; 0.2 µM)?
Answer: The viability was 0.0307.

Question: And the viability ([16]; 1 µM)?
Answer: Its viability is 0.0332.

Question: What about the viability ([17]; 0.0016 µM) of the same compound?
Answer: Its viability is 1.04.

Question: And the viability ([17]; 0.008 µM)?
Answer: Its viability is 0.903.

Question: And the viability ([17]; 0.04 µM)?
Answer: Its viability is 0.39.

Question: What about the viability ([17]; 0.2 µM) of the same compound?
Answer: The viability was 0.38.

Question: What about the viability ([17]; 1 µM) of the same compound?
Answer: Its viability is 0.374.

Question: What about the viability ([18]; 0.0016 µM) of the same compound?
Answer: Its viability is 1.

Question: And the viability ([18]; 0.008 µM)?
Answer: The viability was 0.0229.

Question: And the viability ([18]; 0.04 µM)?
Answer: The viability was 0.0173.

Question: And the viability ([18]; 0.2 µM)?
Answer: The viability was 0.0173.

Question: And the viability ([18]; 1 µM)?
Answer: The viability was 0.0157.

— the supplement of paper PMC10733146
